Experimental data published in patent US20070213339A1 (Bayer Pharmaceuticals Corporation, priority 2004, published 2007).

These molecules were tested on Colo205 human colon carcinoma cell line (assay: In vitro tumor cell proliferation assay (MTS, CellTiter 96 Aqueous One Solution)). Conditions: COLO 205, Colo205 cells, 72 hours compound exposure, MTS absorbance at 490 nm, read-out: IC50 (concentration of test compound required to inhibit proliferation of 50% of the cells).
Type: cell-based
Summary of the method: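 Proliferation measured as MTS tetrazolium reduction (490 nm) after 72 h compound exposure at 37 °C. Cells plated at 2000 per well in serum-supplemented RPMI-1640; duplicate 5-point dilutions topping out at 10-20 μM. Percent inhibition versus untreated and cell-free wells, IC50 derived by linear regression.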

SMILES	IC50
COc1c(N2CCN(c3ccc(C(C)=O)cc3)CC2)c(F)cc2c(=O)c(C(=O)O)cn(-c3ccc(CN4CCCC4)cc3)c12 [Example 78, 7-[4-(4-acetylphenyl)piperazin-1-yl]-6-fluoro-8-methoxy-4-oxo-1-[4-(pyrrolidin-1-ylmethyl)phenyl]-1,4-dihydroquinoline-3-carboxylic acid]	0.5 to 2 µM
CCN(CC)Cc1ccc(-n2cc(C(=O)O)c(=O)c3cc(F)c(N4CCN(c5ccc(C(F)(F)F)cc5)CC4)c(OC)c32)cc1 [Example 112, 1-{4-[(diethylamino)methyl]phenyl}-6-fluoro-8-methoxy-4-oxo-7-{4-[4-(trifluoromethyl)phenyl]piperazin-1-yl}-1,4-dihydroquinoline-3-carboxylic acid]	2 to 20 µM
CON(C)Cc1ccc(-n2cc(C(=O)O)c(=O)c3cc(F)c(N4CCN(c5ncccn5)CC4)c(Cl)c32)cc1 [Example 50, 8-chloro-6-fluoro-1-(4-{[methoxy(methyl)-amino]methyl}phenyl)-4-oxo-7-(4-pyrimidin-2-ylpiperazin-1-yl)-1,4-dihydroquinoline-3-carboxylic acid]	2 to 20 µM
Cc1ccccc1N1CCN(c2c(F)cc3c(=O)c(C(=O)O)cn(-c4ccc(CN5CCCC5)cc4)c3c2Cl)CC1 [Example 11, 8-chloro-6-fluoro-7-[4-(2-methylphenyl)-piperazin-1-yl]-4-oxo-1-[4-(pyrrolidin-1-ylmethyl)phenyl]-1,4-dihydroquinoline-3-carboxylic acid]	0.5 to 2 µM
COc1ccccc1N1CCN(c2c(F)cc3c(=O)c(C(=O)O)cn(-c4ccc(CN(C)C)cc4)c3c2OC)CC1 [Example 99, 1-{4-[(dimethylamino)methyl]phenyl}-6-fluoro-8-methoxy-7-[4-(2-methoxyphenyl)piperazin-1-yl]-4-oxo-1,4-dihydroquinoline-3-carboxylic acid]	0.5 to 2 µM
N#Cc1ccccc1N1CCN(c2c(F)cc3c(=O)c(C(=O)O)cn(-c4ccc(CN5CCCC5)nc4)c3c2Cl)CC1 [Example 36, 8-chloro-7-[4-(2-cyanophenyl)piperazin-1-yl]-6-fluoro-4-oxo-1-[6-(pyrrolidin-1-ylmethyl)pyridin-3-yl]-1,4-dihydroquinoline-3-carboxylic acid]	0.5 to 2 µM
COc1c(N2CCN(c3ccc(F)cc3F)CC2)c(F)cc2c(=O)c(C(=O)O)cn(-c3ccc(CN4CCCC4)cc3)c12 [Example 76, 7-[4-(2,4-difluorophenyl)piperazin-1-yl]-6-fluoro-8-methoxy-4-oxo-1-[4-(pyrrolidin-1-ylmethyl)phenyl]-1,4-dihydroquinoline-3-carboxylic acid]	0.5 to 2 µM
O=C(O)c1cn(-c2ccc(CN3CCCC3)cc2)c2c(OC(F)(F)Cl)c(N3CCN(c4ccc(F)cc4)CC3)c(F)cc2c1=O [Example 147, 8-[chloro(difluoro)methoxy]-6-fluoro-7-[4-(4-fluorophenyl)piperazin-1-yl]-4-oxo-1-[4-(pyrrolidin-1-ylmethyl)phenyl]1,4-dihydroquinoline-3-carboxylic acid]	< 0.5 µM
O=C(O)c1cn(-c2ccc(CNC3CCCCC3)cc2)c2c(Cl)c(N3CCN(c4ccccn4)CC3)c(F)cc2c1=O [Example 171, 8-chloro-1-(4-cyclohexylaminomethyl-phenyl)-6-fluoro-4-oxo-7-(4-pyridin-2-yl-piperazin-1-yl)-1,4-dihydroquinoline-3-carboxylic acid]	< 0.5 µM
O=C(O)c1cn(-c2ccc(CN3CCCC3)cc2)c2c(OC(F)(F)F)c(N3CCN(c4ncccn4)CC3)c(F)cc2c1=O [Example 123, 6-fluoro-4-oxo-7-(4-pyrimidin-2-yl-piperazin-1-yl)-1-[4-(pyrrolidin-1-ylmethyl)phenyl]-8-(trifluoromethoxy)-1,4-dihydroquinoline-3-carboxylic acid]	< 0.5 µM
COc1c(N2CCN(c3ccc(F)cc3F)CC2)c(F)cc2c(=O)c(C(=O)O)cn(-c3ccc(CN(C)C)cc3)c12 [Example 101, 7-[4-(2,4-difluorophenyl)piperazin-1-yl]-1-{4-[(dimethylamino)methyl]phenyl}-6-fluoro-8-methoxy-4-oxo-1,4-dihydroquinoline-3-carboxylic acid]	0.5 to 2 µM
COC[C@@H]1CCCN1Cc1ccc(-n2cc(C(=O)O)c(=O)c3cc(F)c(N4CCN(c5ccccn5)CC4)c(Cl)c32)cc1 [Example 24, 8-chloro-6-fluoro-1-(4-{[(2S)-2-(methoxy-methyl)pyrrolidin-1-yl]methyl}phenyl)-4-oxo-7-(4-pyridin-2-ylpiperazin-1-yl)-1,4-dihydroquinoline-3-carboxylic acid]	< 0.5 µM
N#Cc1ccc(N2CCN(c3c(F)cc4c(=O)c(C(=O)O)cn(-c5ccc(CN6CCCC6)cc5F)c4c3Cl)CC2)nc1 [Example 47, 8-chloro-7-[4-(5-cyanopyridin-2-yl)piperazin-1-yl]-6-fluoro-1-[2-fluoro-4-(pyrrolidin-1-ylmethyl)phenyl]-4-oxo-1,4-dihydroquinoline-3-carboxylic acid]	0.5 to 2 µM
O=C(O)c1cn(-c2ccc(CN3CC[C@H](O)C3)cc2)c2c(Cl)c(N3CCN(c4ccc(F)cc4)CC3)c(F)cc2c1=O [Example 29, 8-chloro-6-fluoro-7-[4-(4-fluorophenyl)-piperazin-1-yl]-1-(4-{[(3S)-3-hydroxypyrrolidin-1-yl]methyl}phenyl)-4-oxo-1,4-dihydroquinoline-3-carboxylic acid]	< 0.5 µM
Cc1cccc(N2CCN(c3c(F)cc4c(=O)c(C(=O)O)cn(-c5ccc(CN6CCCC6)cc5)c4c3OC(F)(F)F)CC2)n1 [Example 120, 6-fluoro-7-[4-(6-methylpyridin-2-yl)piperazin-1-yl]-4-oxo-1-[4-(pyrrolidin-1-ylmethyl)phenyl]-8-(trifluoromethoxy)-1,4-dihydroquinoline-3-carboxylic acid]	< 0.5 µM
CCN(CC)Cc1ccc(-n2cc(C(=O)O)c(=O)c3cc(F)c(N4CCN(c5ccccn5)CC4)c(OC(F)(F)Cl)c32)cc1 [Example 159, 8-[chloro(difluoro)methoxy]-1-{4-[(diethylamino)methyl]phenyl}-6-fluoro-4-oxo-7-(4-pyridin-2-ylpiperazin-1-yl)-1,4-dihydroquinoline-3-carboxylic acid]	< 0.5 µM

More lines, now with the values ahead:

IC50	SMILES
< 0.5 µM	COC[C@@H]1CCCN1Cc1ccc(-n2cc(C(=O)O)c(=O)c3cc(F)c(N4CCN(c5ncccn5)CC4)c(Cl)c32)cc1 [Example 26, 8-chloro-6-fluoro-1-(4-{[(2S)-2-(methoxy-methyl)pyrrolidin-1-yl]methyl}phenyl)-4-oxo-7-(4-pyrimidin-2-ylpiperazin-1-yl)-1,4-dihydroquinoline-3-carboxylic acid]
< 0.5 µM	O=C(O)c1cn(-c2ccc(CN3CCCC3)cc2)c2c(OC(F)(F)F)c(N3CCN(c4cccc(Cl)c4)CC3)c(F)cc2c1=O [Example 119, 7-[4-(3-chlorophenyl)piperazin-1-yl]-6-fluoro-4-oxo-1-[4-(pyrrolidin-1-ylmethyl)phenyl]-8-(trifluoromethoxy)-1,4-dihydroquinoline-3-carboxylic acid]
< 0.5 µM	O=C(O)c1cn(-c2ccc(CN3CCCC3)cc2)c2c(Cl)c(N3CCN(c4ccc(F)cc4)CC3)c(F)cc2c1=O [Example 2, 8-chloro-6-fluoro-7-[4-(4-fluorophenyl)-piperazin-1-yl]-4-oxo-1-[4-(pyrrolidin-1-ylmethyl)phenyl]-1,4-dihydroquinoline-3-carboxylic acid]
< 0.5 µM	CC1CCC(C)N1Cc1ccc(-n2cc(C(=O)O)c(=O)c3cc(F)c(N4CCN(c5ccccn5)CC4)c(Cl)c32)cc1 (centres unmarked) [Example 19, 8-chloro-1-{4-[(2,5-dimethylpyrrolidin-1-yl)methyl]phenyl}-6-fluoro-4-oxo-7-(4-pyridin-2-ylpiperazin-1-yl)-1,4-dihydroquinoline-3-carboxylic acid]
< 0.5 µM	CCN(CC)Cc1ccc(-n2cc(C(=O)O)c(=O)c3cc(F)c(N4CCN(c5ccc(F)cc5)CC4)c(OC)c32)cc1 [Example 105, 1-{4-[(diethylamino)methyl]phenyl}-6-fluoro-7-[4-(4-fluorophenyl)piperazin-1-yl]-8-methoxy-4-oxo-1,4-dihydroquinoline-3-carboxylic acid]
< 0.5 µM	COC[C@@H]1CCCN1Cc1ccc(-n2cc(C(=O)O)c(=O)c3cc(F)c(N4CCN(c5ccc(F)cc5)CC4)c(Cl)c32)cc1 [Example 25, 8-chloro-6-fluoro-7-[4-(4-fluorophenyl)-piperazin-1-yl]-1-(4-{[(2S)-2-(methoxymethyl)pyrrolidin-1-yl]methyl}phenyl)-4-oxo-1,4-dihydroquinoline-3-carboxylic acid]
< 0.5 µM	O=C(O)c1cn(-c2ccc(CN3CCCC3)cc2)c2c(OC(F)(F)F)c(N3CCN(c4ccccn4)CC3)c(F)cc2c1=O [Example 124, 6-fluoro-4-oxo-7-(4-pyridin-2-yl-piperazin-1-yl)-1-[4-(pyrrolidin-1-ylmethyl)phenyl]-8-(trifluoromethoxy)-1,4-dihydroquinoline-3-carboxylic acid]
< 0.5 µM	N#Cc1ccccc1N1CCN(c2c(F)cc3c(=O)c(C(=O)O)cn(-c4ccc(CN5CCCC5)cc4F)c3c2Cl)CC1 [Example 39, 8-chloro-7-[4-(2-cyanophenyl)piperazin-1-yl]-6-fluoro-1-[2-fluoro-4-(pyrrolidin-1-ylmethyl)phenyl]-4-oxo-1,4-dihydroquinoline-3-carboxylic acid]
< 0.5 µM	COc1c(N2CCN(c3ccccn3)CC2)c(F)cc2c(=O)c(C(=O)O)cn(-c3ccc(CN4CCCC4)cc3)c12 [Example 72, 6-fluoro-8-methoxy-4-oxo-7-(4-pyridin-2-ylpiperazin-1-yl)-1-[4-(pyrrolidin-1-ylmethyl)phenyl]-1,4-dihydroquinoline-3-carboxylic acid]
< 0.5 µM	CCN(CC)Cc1ccc(-n2cc(C(=O)O)c(=O)c3cc(F)c(N4CCN(c5ccccc5F)CC4)c(OC(F)(F)F)c32)cc1 [Example 135, 1-{4-[(diethylamino)methyl]phenyl}-6-fluoro-7-[4-(2-fluorophenyl)piperazin-1-yl]-4-oxo-8-(trifluoromethoxy)-1,4-dihydroquinoline-3-carboxylic acid]
